Measurements reported in PubChem BioAssay (NCI).
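Exposure lasted 48 hours, with cells grown in 96-well plates and compounds tested at five concentrations. GI50: concentration for 50% inhibition of growth. TGI denotes the concentration required for complete inhibition of growth.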

How the values were obtained:
Assay in all cases: NCI tumour cell line growth inhibition, 48 h
[1] = tested on: MDA-MB-435
[2] = tested on: EKVX NSCLC
[3] = tested on: SK-MEL-2 melanoma
[4] = tested on: HL-60(TB) leukemia
[5] = tested on: HOP-62 NSCLC
[6] = tested on: KM12 colon
[7] = tested on: SK-MEL-5 melanoma
[8] = tested on: SNB-19 CNS
[9] = tested on: SR leukemia
[10] = tested on: IGROV1 ovarian

Row | SMILES | GI50 [1] [nM] | TGI [1] [µM] | GI50 [2] [µM] | TGI [2] [µM] | GI50 [3] [µM] | TGI [3] [µM] | GI50 [4] [µM] | TGI [4] [µM] | GI50 [5] [µM] | TGI [5] [µM] | GI50 [6] [nM] | TGI [6] [µM] | GI50 [7] [nM] | TGI [7] [µM] | TGI [8] [µM] | TGI [9] [µM] | TGI [10] [µM] | GI50 [8] [µM] | GI50 [10] [µM] | GI50 [9] [nM]
1 | COc1cnc2c(c1)C(=O)c1c-2n(CCCNC2=NCCS2)c(=O)c2cc(Cl)ccc12 | 1430 | 2.76 | 1.64 | 3.39 | 18.3 | 34.3 | 0.656 | 3.39 | 0.0425 | 1.51 | 1330 | 2.82 | 812 | 2.12 |  |  |  |  |  | 
2 | O=C1/C(=N\O)S(=O)(=O)c2ccccc21 |  |  |  |  |  | > 100 |  | > 100 |  | > 100 |  | > 100 |  | > 100 | > 100 | > 100 | > 100 |  |  | 
3 | CC(=O)[CH-]C(=O)c1ccccc1.CC(=O)[CH-]C(=O)c1ccccc1.CC(=O)[CH-]C(=O)c1ccccc1.[In+3] |  |  |  |  | 13 | 34.2 | 14.5 | 41.2 |  |  | 61700 | > 100 |  |  | > 100 |  | > 100 | > 100 | 91.4 | 
4 | CCc1ccc2c(c1)C(=O)c1c-2n(CCCN=[N+]=[N-])c(=O)c2cc(OC)c(OC)cc12 | > 100000 | > 100 | > 100 | > 100 | > 100 | > 100 | > 100 | > 100 | 56.2 | > 100 | > 100000 | > 100 | > 100000 | > 100 | > 100 |  | > 100 | > 100 | 53.4 | 
5 | Cc1[nH]c(=O)nc(Nc2ccc(Cl)cc2)c1C(=O)N1CCN(CCO)CC1 | > 100000 | > 100 | > 100 | > 100 |  |  | > 100 | > 100 | 27.2 | 77.4 | > 100000 | > 100 | > 100000 | > 100 | > 100 |  | > 100 | 33.8 | > 100 | 
6 | CCOC(=O)c1cc2c(n1Cc1cc(OC)c(OC)c(OC)c1)-c1oncc1CCC2 |  |  |  |  | 0.0841 | 0.545 | 0.221 | 0.765 | 0.447 | 37.2 | 88.4 | > 55.4 | 207 | 7.01 | > 100 | 5.5 | 5.36 | 0.604 | 0.147 | 46.4
7 | CC(C)(c1ccccc1)c1ccc(Oc2ccc(C#N)c(C#N)c2)cc1 |  |  |  | > 100 | > 100 | > 100 |  | > 100 | > 100 | > 100 | > 100000 | > 100 |  | > 100 | > 100 |  | > 100 |  | > 100 | 
8 | Cn1cc(-c2csc(-c3cn(CCCN4CCCCC4)c4ccccc34)n2)c2cccnc21 | 1870 | 3.47 | 16.3 | 34.5 | 18.8 | 38.5 |  |  |  |  | 1720 | 3.25 | 1820 | 3.26 | 3.34 |  | 3.35 | 1.83 | 1.61 | 
9 | CCc1ccccc1NC(=O)/C(N=O)=C(/C)O |  |  |  | > 100 |  | > 100 |  | > 100 |  | > 100 |  | > 100 |  | > 100 | > 100 |  | > 100 |  |  | 
10 | O=C(NC(=Nc1ccccc1)SCCSC(=Nc1ccccc1)NC(=O)c1cccs1)c1cccs1 |  |  |  | > 100 |  | > 100 |  |  |  | > 100 |  | > 100 |  | 74 | > 100 |  | > 100 |  |  | 
11 | O=C(N/C(=C\c1ccc(/C=C(\NC(=O)c2ccccc2)c2nc3ccccc3[nH]2)cc1)c1nc2ccccc2[nH]1)c1ccccc1 |  |  |  | > 100 |  | > 100 |  |  |  | > 100 |  |  |  | > 100 | > 100 |  | > 100 |  |  | 
12 | COc1ccc(CC2(Cc3ccc(OC)cc3)CCOC2=O)cc1 |  |  |  | > 100 |  | > 100 |  | > 100 |  | > 100 |  | > 100 |  |  | > 100 | > 100 | > 100 |  |  | 
13 | CCOc1ccc(NC(=O)C(=O)C(C(=O)c2ccc3ccccc3c2)C2OC(=O)c3ccccc32)cc1 (stereo unspecified) |  |  |  | > 100 |  | 37.2 |  |  |  | 39.4 |  | > 100 |  | 31.9 | > 100 |  | 52.5 |  |  | 
14 | Oc1c(Cl)c(Cl)c(O)c2c1CCCC2 |  | 34.1 |  | 21.4 |  | 45.4 |  |  |  | 51.6 |  | 30.2 |  | 25.7 | 30.5 |  |  |  |  | 
